From ChEMBL document CHEMBL5126656, “Callintegers A and B, Unusual Tricyclo[4.4.0.09,10]tetradecane Clerodane Diterpenoids from Callicarpa integerrima with Inhibitory Effects on NLRP3 Inflammasome Activation” (J Nat Prod, 2022)
The source made the active and inactive calls. No cut-off for these calls is given here.

What was measured:
[1] = target: NACHT, LRR and PYD domains-containing protein 3 (Mus musculus, UniProt Q8R4B8); test: Inhibition of NLRP3 inflammasome activation in LPS/nigericin-treated mouse J774A.1 cells assessed as decrease in IL-1beta level pretreated for 0.5 hrs followed by stimulation with nigericin for 1 hr by ELISA; assay type: cell-based, J774.A1
[2] = target: NACHT, LRR and PYD domains-containing protein 3 (Mus musculus) (UniProt Q8R4B8); test: Inhibition of NLRP3 inflammasome activation in LPS/nigericin-treated mouse J774A.1 cells assessed as decrease in caspase-1 level pretreated for 0.5 hrs followed by stimulation with nigericin for 1 hr by Western blot analysis; assay type: cell-based; details: J774.A1, time 1.5 hrs
[3] = target: NACHT, LRR and PYD domains-containing protein 3 (Mus musculus) (UniProt Q8R4B8); test: Inhibition of NLRP3 inflammasome activation in LPS/nigericin-treated mouse J774A.1 cells assessed as decrease in IL-1beta level pretreated for 0.5 hrs followed by stimulation with nigericin for 1 hr by Western blot analysis; assay type: cell-based; details: J774.A1, time 1.5 hrs
[4] = target: NACHT, LRR and PYD domains-containing protein 3 (Mus musculus) (UniProt Q8R4B8); test: Inhibition of NLRP3 inflammasome activation in LPS/nigericin-treated mouse J774A.1 cells assessed as decrease in pyroptosis at 20 uM pretreated for 0.5 hrs followed by stimulation with nigericin for 1 hr by fluorescent microscopic analysis; assay type: cell-based; details: J774.A1, time 1.5 hrs

Sequence of NACHT, LRR and PYD domains-containing protein 3 (Mus musculus) (Q8R4B8 whole entry, the tested form may be a part): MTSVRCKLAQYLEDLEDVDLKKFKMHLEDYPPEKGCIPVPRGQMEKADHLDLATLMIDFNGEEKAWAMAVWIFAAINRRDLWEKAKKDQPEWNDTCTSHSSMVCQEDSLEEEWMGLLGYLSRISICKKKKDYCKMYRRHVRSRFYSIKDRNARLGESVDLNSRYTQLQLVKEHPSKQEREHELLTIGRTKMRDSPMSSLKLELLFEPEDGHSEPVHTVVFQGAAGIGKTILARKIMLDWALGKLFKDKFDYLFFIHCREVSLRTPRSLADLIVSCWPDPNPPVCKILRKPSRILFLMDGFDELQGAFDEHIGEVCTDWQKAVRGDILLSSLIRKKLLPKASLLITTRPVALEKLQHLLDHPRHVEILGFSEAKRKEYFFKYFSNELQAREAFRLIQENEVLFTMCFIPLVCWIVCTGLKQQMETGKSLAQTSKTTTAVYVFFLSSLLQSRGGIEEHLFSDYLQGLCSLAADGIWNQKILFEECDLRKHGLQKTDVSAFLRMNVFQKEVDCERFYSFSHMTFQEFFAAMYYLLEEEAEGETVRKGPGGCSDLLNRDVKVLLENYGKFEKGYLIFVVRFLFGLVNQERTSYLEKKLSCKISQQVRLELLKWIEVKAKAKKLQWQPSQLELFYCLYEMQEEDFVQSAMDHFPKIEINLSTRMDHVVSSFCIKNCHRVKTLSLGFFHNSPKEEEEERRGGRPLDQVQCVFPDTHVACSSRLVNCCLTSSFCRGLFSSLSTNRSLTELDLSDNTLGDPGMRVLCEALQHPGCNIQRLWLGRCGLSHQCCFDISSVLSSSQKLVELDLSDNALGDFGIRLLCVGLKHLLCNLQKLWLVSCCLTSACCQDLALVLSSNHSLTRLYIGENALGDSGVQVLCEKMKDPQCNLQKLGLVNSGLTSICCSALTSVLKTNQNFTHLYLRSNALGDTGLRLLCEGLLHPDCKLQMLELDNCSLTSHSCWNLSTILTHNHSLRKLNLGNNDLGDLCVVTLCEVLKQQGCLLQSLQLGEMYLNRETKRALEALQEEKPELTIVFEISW
Sequence of NACHT, LRR and PYD domains-containing protein 3 (Q8R4B8 whole entry, the tested form may be a part): as above

IC50 [1] | inhibition [2] | inhibition [3] | inhibition [4] | SMILES
23.1 nM |  |  |  | CC(C)(O)c1coc(S(=O)(=O)NC(=O)Nc2c3c(cc4c2CCC4)CCC3)c1
5500 nM | Active | Active | Active | C=C1[C@@H](OC(C)=O)CC[C@]23C=C(C=O)[C@@H](OC(C)=O)C[C@@]2(C)[C@H](C)CC[C@@]13C
